{"source": "patent US20150030676A1", "about": "“STABLIZED MODIFIED RELEASE FOLIC ACID DERIVATIVE COMPOSITION, ITS THERAPEUTIC USE AND METHODS OF MANUFACTURE” (APTALIS PHARMATECH, INC., priority 2013, published 2015)", "origin": "cited, not measured here", "settings": "in vivo", "data": [{"substance": "6(S)-5-methyltetrahydrofolate [L-methylfolate]", "values": [{"measurement": "plasma elimination half life", "result": "about 3 hours"}]}]}
